Experimental data as given in patent US20080241274A1 (ZIOPHARM Oncology, Inc., priority 2006, published 2008).
Like-named read-outs stand apart in the source and are kept apart here.

Tests used:
papillary thyroid cancer = experiment: Phase I study, patient with papillary thyroid cancer; type: in vivo, human; details: 400 mg BID continuous treatment
Excerpt: Treatment is ongoing. […] Treatment is ongoing.

[1] = tested on: un-biotinylated calf brain tubulin; details: G. Bacher, Cancer Res. 61, 2001; cited from earlier work
SKOV3 (ovarian) = experiment: Monolayer assay (DNA content by propidium iodide), single agents and indibulin combinations, SKOV3; type: cell-based, human; details: Homo sapiens
Procedure: (§1) The monolayer assay determines the in vitro antitumor activity of test compounds and their capacity to inhibit survival and proliferation of established tumor cell lines. These effects can be determined by establishing the number of viable cells based on measuring the DNA content using propidium iodide. […] Between 5,000 and 10,000 cells were seeded in 96 well plates on Day 0 and the compounds were added 1 day later and incubated for 4 days. The activity was assessed by their IC50 and IC70 values.
(§2) Growth IC50 and IC70 values (Table 2) were determined using XLfit software package, and used to set the concentration ranges and drug ratios for the synergy detection part of the study.
(§3) Chou-Talalay median effect method was used to quantitatively characterize drug-drug interaction [Chou T. C. Theoretical basis, experimental design, and computerized simulation of synergism and antagonism in drug combination studies. Pharmacol Rev. 2006 September; 58(3):621-81]. […] Mixtures of the drugs at multiples of their single agent IC50's were prepared, as well as serial dilutions of the mixture. Additionally, single agent dose response was determined for the same concentration ranges as used for combination study.
(§4) The coefficient of interaction (CI(IC50)) at IC50 and coefficient of interaction under optimal experimental concentrations (CI(e)) were determined using CalcuSyn software package (Table 3, tests were performed in quadruplicate, mean values reported). Commonly, experimental values of CI<0.8 are considered synergistic, 0.8<CI<1.2 additive.

[2] = tested on: MCF7 breast cancer xenografts; experiment: MCF7 breast cancer xenograft; type: in vivo, Human; details: 38.3 mg/kg/d, 4×(3× week), at sacrifice of control group animals
Excerpt: (§5) The significant differences in pharmacodynamics and safety profile of indibulin make it a strong candidate for development as an anti-cancer drug.

[3] = tested on: axonal microtubules of rat pheochromocytoma (PC12) cells; experiment: Axonal microtubule immunostaining in NGF-differentiated PC12 cells; type: cell-based; details: PC12 neurites induced by NGF 5-6 days; 24 h treatment at 2×IC50 concentration
Excerpt: The outgrowth of neurites of PCl2 was induced by NGF for 5-6 days. […] Microtubules within the neurites, were visualized by immunostaining with an antibody recognizing acetylated (axonal) tubulin, leaving the cell bodies unstained.

[4] = tested on: U87 glioblastoma xenografts; experiment: U87 glioblastoma xenograft in nu/nu mice; type: in vivo, Human
Excerpt: 5×10^6 U87 glioblastoma cells were implanted subcutaneously in immunodeficient nu/nu mice. Treatment started when tumor weight was about 0.15 g (Day 0).
as §5

[5] = tested on: series of cancer models (RENCA, DMBA, SK-OV-3, PC-3, A431, U 87, MCF-7, A 549); experiment: Series of cancer models in animals (overall statement); type: in vivo
Excerpt: as §5

[6] = tested on: MCF-7 ER-positive breast cancer; experiment: Monolayer assay (DNA content by propidium iodide), single agents and indibulin combinations, MCF-7; type: cell-based, human
Procedure: as §1, §2, §3, §4

[7] = tested on: human vulvar squamous cell carcinoma xenograft (A431); experiment: A431 vulvar squamous cell carcinoma xenograft; type: in vivo; details: 27.5 mg/kg/d, 3×(3× week), at sacrifice of control group animals
Excerpt: as §5

[8] = tested on: human prostate cancer xenograft (PC-3); experiment: PC-3 prostate cancer xenograft; type: in vivo; details: 180 mg/kg/d, d. 0, 7, 14, at sacrifice of control group animals
Excerpt: as §5

[9] = tested on: adult bovine brain tubulin; experiment: Tubulin polymerization, adult bovine brain tubulin; type: biochemical; details: bovine brain tubulin; at the highest dose tested
Excerpt: (§6) Tubulin from neuronal tissue is post-translationally modified and the degree of modification increases during neuronal development. Calf brain neuronal tubulin and tubulin from other tissues differ in their post-translational modifications from that of adult bovine brain. […] Tubulin polymerization is given as % over DMSO control.

[10] = tested on: purified calf brain tubulin; experiment: Tubulin polymerization, calf brain tubulin; type: biochemical, bovine; details: FIG. 9, read-out: IC50 of inhibition of tubulin polymerization
Excerpt: as §6

A549 NSCLC = experiment: Monolayer assay (DNA content by propidium iodide), single agents and indibulin combinations, A549; type: cell-based, human; details: for IC50: Homo sapiens
Procedure: as §1, §2, §3, §4

[11] = tested on: biotin-labeled calf brain tubulin; experiment: Competition with 3H-colchicine for tubulin binding (SPA beads); set-up: species or system bovine; details: 200-fold molar excess of cold competitor; FIG. 8
Procedure: Where indicated, a 200-fold molar excess of cold competitor was added. Tubulin heterodimers were then precipitated with streptavidin-coated SPA beads and bound radioactivity was determined. “No tubulin” indicates non-specifically bound radioactivity measured in the absence of biotin-labeled tubulin.

[12] = tested on: human ovarian xenograft (SK-OV-3); experiment: SK-OV-3 ovarian xenograft; type: in vivo; details: SKOV-3; 100 mg/kg/d, d. 0, 7, 14; at sacrifice of control group animals
Excerpt: as §5

PC3 (prostate) = experiment: Monolayer assay (DNA content by propidium iodide), single agents and indibulin combinations, PC3; type: cell-based, human; details: for Combination IC50: PC3, concentration of the named drug in the combination
Procedure: as §1, §2, §3, §4

[13] = MCF7, indibulin + 5-FU (5FU:indibulin 10.9:1), concentration of the named drug in the combination
[14] = MCF7, indibulin + paclitaxel (paclitaxel:indibulin 0.27:1), concentration of the named drug in the combination
[15] = MCF7, indibulin + tamoxifen (tamoxifen:indibulin 100:1), concentration of the named drug in the combination
[16] = MCF7, indibulin + vinorelbine (vinorelbine:indibulin 0.016:1), concentration of the named drug in the combination
[17] = A549, single agent (combination study)

SMILES: O=C(Nc1ccncc1)C(=O)c1cn(Cc2ccc(Cl)cc2)c2ccccc12 [Indibulin, N-(pyridin-4-yl)-[1-(4-chlorobenzyl)-indol-3-yl]-glyoxylic acid amide]
- Decrease of thyroglobulin level from baseline (papillary thyroid cancer; after 15th day of dosing): 34%
- Decrease of tumor measurements (papillary thyroid cancer; at first assessment): 11%
- Disease status after treatment (papillary thyroid cancer; person): stable disease
- Competition with 3H-colchicine binding [1]: does not compete
- IC50 (SKOV3 (ovarian); SK-OV-3, SKOV3, single agent (combination study), read-out: Single Agent IC50): 0.415 µg/mL
- IC50 (SKOV3 (ovarian); SK-OV-3, SKOV3, indibulin + carboplatin, concentration of the named drug in the combination, read-out: Combination IC50): 0.029 µg/mL
- IC50 (SKOV3 (ovarian); SK-OV-3, SKOV3, indibulin + cisplatin, concentration of the named drug in the combination, read-out: Combination IC50): 0.022 µg/mL
- IC50 (SKOV3 (ovarian); SK-OV-3, SKOV3, indibulin + gemcitabine, concentration of the named drug in the combination, read-out: Combination IC50): 0.047 µg/mL
- Growth Inhibition (%) [2]: >100%
- Effect on axonal microtubules (acetylated tubulin immunostaining) [3]: did not affect axonal microtubules
- Growth Inhibition (%) ([4]; U87, 27.5 mg/kg/d, 3×(3× week), at sacrifice of control group animals): 88.8%
- Growth of U87 glioblastoma xenografts (in words) ([4]; orally administered, s.c. tumors in nu/nu mice, FIG. 11): inhibits growth
- Anti-tumor activity in all models ([5]; all models tested): strong and statistically significant anti-tumor activity
- Neurotoxicity or loss of body weight ([5]; animals at efficacious doses): no signs of neurotoxicity or loss of body weight
- IC50 ([6]; Homo sapiens, MCF7, MCF7, single agent (combination study), read-out: Single Agent IC50): 0.013 µg/mL
- Single Agent IC84 ([6]; MCF7, single agent (combination study)): 53 ng/mL
- Combination IC50 [6, 13]: 0.005 µg/mL
- Combination IC60 [6, 13]: 0.0028 µg/mL
- Combination IC50 ([6]; MCF7, indibulin + doxorubicin, concentration of the named drug in the combination): 0.011 µg/mL
- Combination IC50 [6, 14]: 0.004 µg/mL
- Combination IC84 [6, 14]: 10 ng/mL
- Combination IC50 [6, 15]: 0.004 µg/mL
- Combination IC60 [6, 15]: 0.0064 µg/mL
- Combination IC50 [6, 16]: 0.008 µg/mL
- Combination IC60 [6, 16]: 0.006 µg/mL
- Growth Inhibition (%) [7]: 63%
- Growth Inhibition (%) [8]: 63%
- Inhibition of tubulin polymerization [9]: 25%
- IC50 [10]: ~250 nM
- Single Agent IC40 (A549 NSCLC; [17]): 0.071 µg/mL
- Single Agent IC50 (A549 NSCLC; [17]): 0.054 µg/mL
- Single Agent IC60 (A549 NSCLC; [17]): 0.129 µg/mL
- Single Agent IC70 (A549 NSCLC; [17]): 0.095 µg/mL
- Combination IC70 (A549 NSCLC; A549, indibulin + carboplatin (carboplatin:indibulin 303:1), concentration of the named drug in the combination): 0.027 µg/mL
- Combination IC40 (A549 NSCLC; A549, indibulin + erlotinib (erlotinib:indibulin 208:1), concentration of the named drug in the combination): 0.021 µg/mL
- Combination IC60 (A549 NSCLC; A549, indibulin + etoposide, concentration of the named drug in the combination): 0.068 µg/mL
- IC50 (A549 NSCLC; A549, 96 h, A549, single agent, 4 days incubation, read-out: Growth IC50): 0.038 µg/mL
- IC50 (A549 NSCLC; A549, A549, single agent (combination study), read-out: Single Agent IC50): 0.092 µg/mL
- IC50 (A549 NSCLC; A549, A549, indibulin + carboplatin (carboplatin:indibulin 303:1), concentration of the named drug in the combination, read-out: Combination IC50): 0.011 µg/mL
- IC50 (A549 NSCLC; A549, A549, indibulin + erlotinib (erlotinib:indibulin 208:1), concentration of the named drug in the combination, read-out: Combination IC50): 0.03 µg/mL
- Inhibition of 3H-colchicine binding [11]: about 40%
- Growth Inhibition (%) [12]: 53%
- IC50 (PC3 (prostate); Homo sapiens, PC3, single agent (combination study), read-out: Single Agent IC50): 0.034 µg/mL
- Combination IC50 (PC3 (prostate); indibulin + estramustine): 0.014 µg/mL
- Combination IC50 (PC3 (prostate); indibulin + prednisolone): 0.012 µg/mL
